The values that follow come from patent publication US20150050410A1, “COMPOUNDS, COMPOSITIONS, AND METHODS FOR MODULATING SWEET TASTE” (Chromocell Corporation, priority 2013, published 2015).

This experiment relates to perception of sweet taste, in an aqueous solution, in humans. The experiment can be described thus: Inherent sweetness assessment, difference from control "sip and spit" method. The settings on record: no sweetener. It counts as in vivo. As to the method: The taste test panelists used in the Examples 1-3 were selected using a sensory acuity screening program. Candidate taste panelists were recruited, with prescreening and personal interviews, and were assessed and for their ability to detect, recognize and differentiate basic taste attributes or mixtures thereof as part of a standardized acuity test. This included basic tastes of sweet, sour, salty, bitter and umami, as well as having the capacity to focus on specific aspects of sensory character such as ranking the various tastes perceived and identifying the basic tastes presented at threshold levels.
The aqueous sucrose solutions were prepared by adding, sucrose (by weight), to water to achieve the desired concentration.
Compounds were first prepared as a 500-fold concentrated stock solution in 100% ethanol. These concentrated stocks were then added to water to result in a final ethanol concentration of 0.2%. The control (including positive control) samples were also normalized to 0.2% ethanol. This level of ethanol was not seen to contribute any perceived sweetness.
The intrinsic effect of test compounds on the perception of sweet taste, in an aqueous solution, in humans was evaluated using a difference from control “sip and spit” method employing a verbal category scale.
In this method, panelists (n=12) evaluate one pair of samples at a time—one sample contains water plus compound (i.e. test) while the other contains water without compound (i.e. control). Panelists were instructed to first taste the un-blinded control followed by the test sample and asked to rate the size of sweetness difference between the test and control sample, using a 6 point verbal category scale:
Verbal Category Scale • No difference • Slight difference • Slight/moderate difference • Moderate difference • Moderate/large difference • Very large difference […]

As for `COc1ccc(C2CC(=O)c3c(O)cccc3O2)cc1O` (racemic) [Compound 1, 5-hydroxy-2-(3-hydroxy-4-methoxyphenyl)chroman-4-one], the “Correlated Inherent Sweetness Assessment” value runs as follows: (compound 10 ppm in water) 0% sucrose; (compound 15 ppm in water) 0%-0.5%; (compound 25 ppm in water) 0%-0.5%.
